In patent EP4775208A1, “USE OF PRMT5 INHIBITOR IN TREATMENT OF TUMORS OR CANCERS” (Apeiron Therapeutics (Hong Kong) Ltd., priority 2023, dated 2025):

Experiments:
[1] = system: HCT-116 MTAP wild-type cells; experiment: Inhibition of proliferation of HCT-116 MTAP wild-type cells (Cell-Titer Glo); assay type: cell-based; settings: 8 days
Description: Test 2: Compound's inhibitory activity on proliferation of HCT-116 MTAP wild-type cells.
Materials and Cells: HCT-116 MTAP wild-type cells obtained from Kyinno Bio (China); RPMI-1640 medium, fetal bovine serum, and penicillin-streptomycin purchased from Thermo Fisher Scientific (America); 384-well plates from PerkinElmer (America); Cell-Titer Glo assay kit from Promega (America).
Cell Culture: HCT116 MTAP wild-type cells were cultured in RPMI 1640 medium containing 10% fetal bovine serum and 1% penicillin-streptomycin at 37°C, 5% CO2. Only cells in logarithmic growth phase were used for experiments.
(§1) Cell Proliferation Inhibition Assay: The compound's inhibitory activity on HCT-116 MTAP wild-type cells was assessed using the Cell-Titer Glo assay kit. Adjusting cell concentration, 40 µL was seeded into a 384-well plate and cultured overnight at 37°C, 5% CO2. Each well received 40 nL of the compound, achieving concentrations from 0 to 10,000 nM (starting concentration 10,000 nM, 3-fold dilution, 10 points), with 0.1% DMSO. The cell plate was incubated for 8 days at 37°C, 5% CO2. Cell-Titer Glo reagent (40 µL) was added to measure cell viability.

[2] = system: HCT-116 MTAP(-/-) deficient cells; experiment: Inhibition of proliferation of HCT-116 MTAP(-/-) deficient cells (Cell-Titer Glo); assay type: cell-based; settings: 8 days
Description: Test 1: Compound's inhibitory activity on proliferation of HCT-116 MTAP(-/-) deficient cells.
Materials and Cells: HCT-116 MTAP(-/-) deficient cells obtained from Kyinno Bio (China); RPMI-1640 medium, fetal bovine serum, and penicillin-streptomycin purchased from Thermo Fisher Scientific (America); 384-well plates from PerkinElmer (America); Cell-Titer Glo assay kit from Promega (America).
Cell Culture: HCT116 MTAP(-/-) deficient cells were cultured in RPMI 1640 medium containing 10% fetal bovine serum and 1% penicillin-streptomycin at 37°C, 5% CO2. Only cells in logarithmic growth phase were used for experiments.
as §1, with “MTAP(-/-) deficient” for “MTAP wild-type”

Compound | IC50 ([1]; Homo sapiens, HCT-116, 192 h) [nM] | IC50 ([2]; Homo sapiens, HCT-116, 192 h) [nM] | IC50 [1] [nM] | IC50 [2] [nM]
CN(C(=O)c1ccc2nc(N)c3cncn3c2c1)[C@@H]1COc2cc(C(F)(F)F)ncc21 [Example 26, (S)-4-amino-N-methy 1-N-(6-(trifluoromethy 1)-2,3-dihydrofuro[3,2-c]pyridin-3-yl)imidaz o[1,5-a]quinoxaline-8-carboxamide] | > 10000 | 67.7 | – | –
Nc1nc2ccc(C(=O)N(C3CC3)C3COc4cc(Br)ccc43)cc2n2cncc12 (centres unmarked) [Example 74, 4-amino-N-(6-bromo-2,3-dihydrobenzofuran-3-yl)-N-cyclopropyl imidazo[1,5-a]quinox aline-8-carboxamide] | – | – | 5990 | 148
CN(C(=O)c1cc2c(cc1F)nc(N)c1cncn12)[C@@H]1CCOc2cc(-c3cnn(C)c3)ccc21 [Example 114, (R)-4-amino-7-fluoro-N-methyl-N-(7-(1-methyl-1H-pyrazol-4-yl)chroman-4-yl)imidazo [1,5-a]quinoxaline-8-c arboxamide] | > 10000 | 146 | – | –
CN(C(=O)c1ccc2nc(N)c3cncn3c2c1)C1COc2nc(C(F)(F)F)ccc21 (centres unmarked) [Example 7, 4-amino-N-methyl-N-(6-(trifluoromethyl)-2,3-dihydrofuro[2,3-b]pyridin-3-yl)imidazo[1,5-a]quinoxaline-8-car boxamide] | > 10000 | 141 | – | –
CN(C(=O)c1cc2c(cc1F)nc(N)c1cncn12)C1CCOc2cc(C(F)(F)F)cnc21 (centres unmarked) [Example 110, 4-amino-7-fluoro-N-methyl-N-(7-(trifluoromethyl)-3,4-dihydro-2 H-pyrano[3,2-b]pyridin-4-yl)imidazo[1,5-a] quinoxaline-8-carbox amide] | > 10000 | > 3000 | – | –
CCOC(=O)c1ncn2c1c(N)nc1ccc(C(=O)N(C)C3COc4cc(C(F)(F)F)ccc43)cc12 (centres unmarked) [Example 109, ethyl 4-amino-8-(methyl(6-(trifluoromethyl)-2,3-dihydrobenzofuran-3-yl)carbamoyl)imidazo[1,5-a]quinoxaline-3-carboxylate] | 9090 | > 3000 | – | –
CN(C(=O)c1ccc2nc(N)c3cncn3c2c1)[C@@H]1COc2cc(F)ccc21 [Example 68, (S)-4-amino-N-(6-fluoro-2,3-dihydrobenzofuran-3-yl)-N-methyli midazo[1,5-a]quinoxa line-8-carboxamide] | 8570 | 382 | – | –
CN(C(=O)c1ccc2nc(N)c3cc(F)cn3c2c1)[C@@H]1COc2cc(Br)ccc21 [Example 11, (S)-4-amino-N-(6-bromo-2,3-dihydrobenzof uran-3-yl)-2-fluoro-N -methylpyrrolo[1,2-a] quinoxaline-8-carbox amide] | 6410 | 1770 | – | –
(S)-4-amino-N-(6-bromo-2,3-dihydrobenzofuran-3-yl)-N-cyclopropylimidazo[1,5-a]quinoxaline-8-carboxamide [Example 82] | – | – | 1920 | 52.9
CN(C(=O)c1cc2c(cc1F)nc(N)c1cncn12)[C@@H]1CCOc2cc(-c3ccnn3C)ccc21 [Example 115, (R)-4-amino-7-fluoro-N-methyl-N-(7-(1-methyl-1H-pyrazol-5-yl)chroman-4-yl)imidazo[1,5-a]quinoxaline-8-carboxamide] | > 10000 | 84.3 | – | –
(S)-4-amino-N-(6-(cy clopropylsulfonyl)-2,3 -dihydrobenzo[b]thio phen-3-yl)-N-methyli midazo[1,5-a]quinoxa line-8-carboxamide [Example 133] | – | – | > 10000 | 71.4
(R)-4-amino-N-(6-bromo-2,3-dihydrobenzofuran-3-yl)-N-cyclopropylimidazo[1,5-a]quinoxaline-8-carboxamide [Example 81] | – | – | 2360 | 1790
CC1OC[C@@H](N(C)C(=O)c2ccc3nc(N)c4cncn4c3c2)c2cc(C(F)(F)F)ccc21 (stereo partly drawn) [Example 19, 4-amino-N-methyl-N-((4S)-1-methyl-6-(trifluoromethyl)isochroman-4-yl)imidazo[1,5-a]quinoxaline-8-carbox amide] | 2230 | 23.2 | – | –
CN(C(=O)c1ccc2nc(N)c3cncn3c2c1)[C@@H]1CSc2cc(C(F)(F)F)ccc21 (single isomer, unassigned) [Example 102] | 1990 | 7.9 | – | –
Nc1nc2cc(F)c(C(=O)N(C3CC3)C3CCOc4cc(-c5cncc(C(F)(F)F)c5)cnc43)cc2n2cncc12 (centres unmarked) [Example 59, 4-amino-N-cyclopropyl-7-fluoro-N-(7-(5-(trifluoromethyl)pyridin-3-yl)-3,4-dihydro-2H-pyrano[3,2-b]pyridin-4-yl)imidazo [1,5-a]quinoxaline-8-carboxamide] | > 10000 | 711 | – | –
Cc1ncn2c1c(N)nc1ccc(C(=O)N(C)[C@@H]3COc4ccc(F)cc43)cc12 [Example 64, (S)-4-amino-N-(5-fluoro-2,3-dihydrobenzofuran-3-yl)-N,3-dimet hylimidazo[1,5-a]quin oxaline-8-carboxamide] | > 20000 | 278 | – | –
CN(C(=O)c1ccc2nc(N)c3cncn3c2n1)[C@@H]1COc2cc(C(F)(F)F)ccc21 [Example 30, (S)-6-amino-N-methy 1-N-(6-(trifluoromethy 1)-2,3-dihydrobenzofuran-3-yl)imidazo[1,5-a]pyrido[3,2-e]pyrazine-2-carboxamide] | > 10000 | 2090 | – | –
CN(C(=O)c1ccc2nc(N)c3cncn3c2c1)[C@@H]1COc2cc(C#N)ccc21 [Example 10, (S)-4-amino-N-(6-cyano-2,3-dihydrobenzof uran-3-yl)-N-methyli midazo[1,5-a]quinoxa line-8-carboxamide] | 3110 | 31.2 | – | –
Nc1nc2ccc(C(=O)N(C3CC3)[C@@H]3COc4cc(C(F)(F)F)ccc43)cc2n2cncc12 (single isomer, unassigned) [Example 84] | 1470 | 21.9 | – | –
CN(C(=O)c1cc2c(cn1)nc(N)c1cncn12)[C@@H]1COc2cc(C(F)(F)F)ncc21 [Example 31, (S)-4-amino-N-methy 1-N-(6-(trifluoromethy 1)-2,3-dihydrofuro[3,2-c]pyridin-3-yl)imidaz o[1,5-a]pyrido[3,4-e]p yrazine-8-carboxamide] | > 10000 | 297 | – | –
C[C@H]1OC[C@@H](N(C)C(=O)c2ccc3nc(N)c4cncn4c3c2)c2cc(F)ccc21 (single isomer, unassigned) [Example 100] | 3580 | 68.3 | – | –
(S)-4-amino-N-(6-chl oro-2,3-dihydrobenzo furan-3-yl)-N-methyli midazo[1,5-a]quinoxa line-8-carboxamide [Example 70] | – | – | 3890 | 54
(R)-4-amino-N-methy 1-N-(6-(trifluoromethy 1)-2,3-dihydrofuro[2,3 -b]pyridin-3-yl)imida zo[1,5-a]quinoxaline-8-carboxamide [Example 89] | – | – | > 10000 | > 3000
CN(C(=O)c1cc2c(cc1F)nc(N)c1cncn12)[C@@H]1CCOc2cc(C(F)(F)F)ccc21 [Example 60, (R)-4-amino-7-fluoro-N-methyl-N-(7-(trifluoromethyl)chroman-4-yl)imidazo[1,5-a]qui noxaline-8-carboxamide] | 7070 | 66.8 | – | –
4-amino-N-methyl-N-(8-(trifluoromethyl)-1, 3,4,5-tetrahydrobenzo [c]oxepin-5-yl)imidaz o[1,5-a]quinoxaline-8 -carboxamide [Example 44] | – | – | > 10000 | 310
CN(C(=O)c1ccc2nc(N)c3nncn3c2c1)[C@@H]1COc2cc(C(F)(F)F)ccc21 [Example 48, (S)-4-amino-N-methy 1-N-(6-(trifluoromethy 1)-2,3-dihydrobenzofuran-3-yl)-[1,2,4]triazo lo[4,3-a]quinoxaline-8-carboxamide] | > 3000 | > 3000 | – | –
Cc1ncn2c1c(N)nc1ccc(C(=O)N(C3CC3)C3COc4cc(C(F)(F)F)ccc43)cc12 (centres unmarked) [Example 69, 4-amino-N-cyclopropyl-3-methyl-N-(6-(trifluoromethyl)-2,3-dihydrobenzofuran-3-yl)i midazo[1,5-a]quinoxa line-8-carboxamide] | 5020 | 87.1 | – | –
CC1OC[C@@H](N(C)C(=O)c2cc3c(cn2)nc(N)c2cncn23)c2ccc(Br)cc21 (stereo partly drawn) [Example 17, 4-amino-N-((4S)-7-bromo-1-methylisochroman-4-yl)-N-methyli midazo[1,5-a]pyrido[3,4-e]pyrazine-8-carb oxamide] | 243 | 4.2 | – | –
